Earlier results, collected in US10709666B2, “Carrier particles for dry powder formulations for inhalation” (CHIESI FARMACEUTICI S.P.A., priority 2017, dated 2020).

Settings: room temperature

SMILES | saturated concentration in water
OC[C@@H](O)[C@@H](O)[C@H](O)[C@H](O)CO [mannitol] | 18-21 % w/v
O.OC[C@H]1O[C@@H](O[C@H]2[C@H](O)[C@@H](O)[C@@H](O)O[C@@H]2CO)[C@H](O)[C@@H](O)[C@H]1O [alpha-lactose monohydrate] | 18-19 % w/v
